Like-named read-outs stand apart in the source and are kept apart here.
Key:
[1] = tested on: Rat Liver; conditions: chronic study, ref ToxRefDB, cited from earlier work
[2] = tested on: Rat Liver; conditions: chronic study, ref ToxRefDB, cited from earlier work; remark: listed apart in the source
[3] = tested on: ABCB1; assay: CLZD_ABCB1: Change in expression of ABCB1 (primary human hepatocytes); format: cell-based; conditions: 24 hr
Method: This is a collection of multiplexed gene expression assays focused on Phase I and II xenobiotic metabolizing enzymes and transporters. Human primary cell cultures were treated with chemicals at 5 concentrations (0.004-40 [drawing 42] M) for 6, 24 and 48 hr. Concentration- and time-response profiles of chemicals were measured by the expression of key nuclear receptor target genes, activities of CYP1A enzymes (EROD), and cell morphology. Fourteen gene targets were monitored by quantitative nuclease protection assay including: six representative cytochrome P-450 genes, four hepatic transporters, three Phase II conjugating enzymes, and one endogenous metabolism gene involved in cholesterol synthesis. The target genes associated with nuclear receptor pathways are as follows: [drawing 43] and [drawing 44] with [drawing 45]; [drawing 46] , [drawing 47] , [drawing 48] , [drawing 49] , [drawing 50] and [drawing 51] with [drawing 52]; [drawing 53] , [drawing 54] , [drawing 55] and [drawing 56] with [drawing 57]; [drawing 58] with [drawing 59]; and [drawing 60] with [drawing 61] . Assays were run in primary human hepatocyte cultures by CellzDirect Invitrogen Inc. (Durham, NC), in collaboration with EPA.
Multiplexed Gene Expression in Human Primary Hepatocytes: This is a collection of multiplexed gene expression assays focused on Phase I and II metabolic enzymes and transporters. […] Fourteen gene targets were monitored by quantitative nuclease protection assay: six representative cytochrome P450 genes, four hepatic transporters, three Phase II conjugating enzymes, and one endogenous metabolism gene involved in cholesterol synthesis. Cells were exposed at 5 concentrations (0.004-40 µM) for 6, 24 or 48 hr. Gene targets are sentinels for five nuclear receptor signaling pathways: AhR, CAR, PXR, FXR, and PPARα. All gene are associated with nuclear receptor pathways: CYP1A1 and CYP1A2 with AHR; ABCB1, ABCG2, CYP2B6, CYP2C9, CYP2C19 and UGT1A1 with CAR; CYP3A4, GSTA2, SLCO1B1 and SULT2A1 with PXR; HMGCS2 with PPARA; and ABCB11 with FXR. […] Detailed description of the methods, data and analysis methods for this dataset will be presented in a separate publication.

[4] = tested on: Rat Liver; conditions: chronic study, ref ToxRefDB, cited from earlier work; remark: listed apart in the source
[5] = tested on: Mouse Liver; conditions: chronic study, ref ToxRefDB, cited from earlier work
[6] = biological target: T1, PXR (NR1I2) (Homo sapiens, UniProt O75469); assay: ATG_PXRE_CIS: Factorial reporter gene assay (HepG2); format: cell-based; set-up: endogenous in cells; host or cells: HepG2
T1 sequence (O75469 1-434): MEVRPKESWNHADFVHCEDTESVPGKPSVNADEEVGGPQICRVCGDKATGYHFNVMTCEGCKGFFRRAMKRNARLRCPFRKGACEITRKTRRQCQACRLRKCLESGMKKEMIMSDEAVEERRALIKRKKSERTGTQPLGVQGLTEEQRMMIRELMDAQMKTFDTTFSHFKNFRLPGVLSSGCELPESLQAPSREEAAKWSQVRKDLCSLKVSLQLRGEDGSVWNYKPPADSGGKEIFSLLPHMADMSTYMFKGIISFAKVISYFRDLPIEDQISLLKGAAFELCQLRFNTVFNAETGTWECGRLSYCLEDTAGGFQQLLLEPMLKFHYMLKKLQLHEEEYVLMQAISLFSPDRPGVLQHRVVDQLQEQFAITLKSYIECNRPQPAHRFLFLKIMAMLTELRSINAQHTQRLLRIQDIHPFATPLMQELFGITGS
Procedure, shortened: (§1)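 Each chemical received seven doses, the first at its MTC, then successive three-fold dilutions. Host cells: HepG2 carrying either cis (PXRE, 48 sites) or trans one-hybrid (ERRg, FXR, PPARg; 25 units) reporter libraries.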

[7] = tested on: CYP1A1; assay: CLZD_CYP1A1: Change in expression of CYP1A1 (primary human hepatocytes); format: cell-based; conditions: 24 hr
Procedure, shortened: (§2)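 Chemicals are tested in human hepatocyte primary cultures over 0.004-40 µM (5 concentrations) for 6, 24 or 48 hr, and concentration- and time-dependent transcript changes are read by quantitative nuclease protection assay.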

[8] = tested on: CYP2B6; assay: CLZD_CYP2B6: Change in expression of CYP2B6 (primary human hepatocytes); format: cell-based; conditions: 24 hr
Procedure, shortened: as §2

[9] = tested on: Mouse Liver; conditions: chronic study, mouse liver; ref ToxRefDB; cited from earlier work
[10] = tested on: CYP3A4; assay: CLZD_CYP3A4: Change in expression of CYP3A4 (primary human hepatocytes); format: cell-based; conditions: 24 hr
Procedure, shortened: as §2

[11] = biological target: T1, PXR (NR1I2); assay: NVS_NR_hPXR: Human PXR Fluormone PXR (SXR) green (cell-free HTS); format: binding
Procedure, shortened: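 Cell-free biochemical binding assays; chemicals first screened at a single concentration of 25 […] M in duplicate wells. Signals normalised to same-plate solvent controls as percent of neutral control, and AC50 values came from Hill-equation fits of concentration-response curves.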

[12] = tested on: Mouse Liver; conditions: chronic study, mouse liver; ref ToxRefDB; cited from earlier work; remark: listed apart in the source
[13] = biological target: T1, PXR (NR1I2); assay: ATG_PXR_TRANS: Factorial reporter gene assay (HepG2); format: cell-based; set-up: endogenous in cells; host or cells: HepG2; conditions: HepG2 reporter
Procedure, shortened: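 Seven concentrations per chemical, three-fold dilutions down from the MTC, were tested in HepG2 hepatoma cells. Those cells carried a multiple reporter transcription unit library, read either as cis transcription-factor-site reporters or as a trans mammalian one-hybrid panel for nuclear receptors.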

[14] = biological target: T2, PXR Human (NR1I2) (Homo sapiens, UniProt O75469); assay: NCGC_PXR_Agonist_human: GAL4 BLAM Reporter gene assay: PXR Human; format: cell-based; conditions: agonist mode
T2 sequence (O75469 146-434 limits assumed): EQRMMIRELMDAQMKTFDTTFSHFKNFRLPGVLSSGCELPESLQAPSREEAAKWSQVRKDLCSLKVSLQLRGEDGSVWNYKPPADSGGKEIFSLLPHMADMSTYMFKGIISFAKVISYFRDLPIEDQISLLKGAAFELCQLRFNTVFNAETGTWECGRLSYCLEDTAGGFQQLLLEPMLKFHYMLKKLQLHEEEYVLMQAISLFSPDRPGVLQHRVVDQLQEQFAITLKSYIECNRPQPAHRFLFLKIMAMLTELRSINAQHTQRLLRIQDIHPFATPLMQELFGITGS
Procedure, shortened: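 Tox21 cell-based screens at NCGC using GAL4-fused receptor beta-lactamase reporters. Responses active only at the top concentration (above 50%) were discarded, and fits needed R^2 of at least 0.5.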

[15] = biological target: T3, LXRb (NR1H2) (Homo sapiens, UniProt P55055); assay: ATG_LXRb_TRANS: Factorial reporter gene assay (HepG2); format: cell-based; conditions: HepG2 reporter
T3 construct: expressed in transfected cells; host or cells: HepG2
T3 sequence (P55055 1-460): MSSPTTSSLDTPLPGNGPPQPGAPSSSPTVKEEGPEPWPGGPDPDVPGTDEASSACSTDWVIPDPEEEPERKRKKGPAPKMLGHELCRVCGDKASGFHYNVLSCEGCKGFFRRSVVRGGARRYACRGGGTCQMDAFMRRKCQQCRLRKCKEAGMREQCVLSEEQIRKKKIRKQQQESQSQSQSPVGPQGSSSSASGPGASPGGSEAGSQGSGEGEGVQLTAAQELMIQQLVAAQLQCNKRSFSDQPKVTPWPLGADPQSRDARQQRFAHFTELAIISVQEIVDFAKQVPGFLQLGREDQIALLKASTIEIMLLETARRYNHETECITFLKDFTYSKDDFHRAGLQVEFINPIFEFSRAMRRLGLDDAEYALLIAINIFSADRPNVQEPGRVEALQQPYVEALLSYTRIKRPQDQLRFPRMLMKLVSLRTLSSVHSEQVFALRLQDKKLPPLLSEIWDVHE
Method: A multiple reporter transcription unit (MRTU) library consisting of 48 transcription factor binding sites was transfected into the HepG2 human liver hepatoma cell line. In addition to the cis-acting reporter genes (CIS), a modification of the approach was used to generate a trans-system (TRANS) with a mammalian one-hybrid assay consisting of an additional 25 MRTU library reporting the activity of nuclear receptor super-family members. […] These assays were performed by Attagene Inc. (Morrisville NC) under contract to EPA.
In addition to the cis-acting reporter genes (CIS), a modification of the approach was used to generate a trans-system (TRANS) with a mammalian one-hybrid assay consisting of an additional 25 MRTU library reporting the activity of nuclear receptor super-family members. […] Chemicals were then tested in the CIS and TRANS assays at seven concentrations starting at the MTC and followed by three-fold serial dilutions. These assays were performed by Attagene Inc. (Morrisville NC) under contract to EPA. Detailed description of the methods, data and analysis methods for this dataset will be presented in a separate publication.

[16] = biological target: T4, PPARG (peroxisome proliferator-activated receptor gamma) (Homo sapiens, UniProt P37231); assay: ATG_PPARg_TRANS: Factorial reporter gene assay (HepG2); format: cell-based; conditions: HepG2 reporter
T4 construct: expressed in transfected cells; host or cells: HepG2
T4 sequence (P37231 1-505): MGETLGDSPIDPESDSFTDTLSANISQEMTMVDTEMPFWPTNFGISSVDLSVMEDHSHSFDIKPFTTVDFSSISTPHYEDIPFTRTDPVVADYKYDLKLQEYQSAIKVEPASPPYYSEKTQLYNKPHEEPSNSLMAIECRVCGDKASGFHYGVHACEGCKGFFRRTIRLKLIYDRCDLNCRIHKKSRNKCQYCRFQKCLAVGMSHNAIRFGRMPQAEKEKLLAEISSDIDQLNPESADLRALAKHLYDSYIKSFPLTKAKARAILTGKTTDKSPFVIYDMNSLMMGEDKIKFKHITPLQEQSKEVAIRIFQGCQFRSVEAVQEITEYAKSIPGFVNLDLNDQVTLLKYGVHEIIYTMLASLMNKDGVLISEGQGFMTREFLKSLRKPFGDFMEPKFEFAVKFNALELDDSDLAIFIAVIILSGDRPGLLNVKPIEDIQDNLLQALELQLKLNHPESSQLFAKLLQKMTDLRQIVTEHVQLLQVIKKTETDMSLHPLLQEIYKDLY
Procedure, shortened: as §1

[17] = tested on: CYP1A2; assay: CLZD_CYP1A2: Change in expression of CYP1A2 (primary human hepatocytes); format: cell-based; conditions: 24 hr
Procedure, shortened: as §2

CC(C)(C)[C@H](O)[C@H](Cc1ccc(Cl)cc1)n1cncn1 [r235]
CHR_Rat_Liver_2_PreneoplasticLesion ([1]; rat): 0 | CHR_Rat_Liver_3_NeoplasticLesion ([2]; rat): 0 | CLZD_ABCB1_24 [3]: 5.316 | CHR_Rat_Liver_1_AnyLesion ([4]; rat): 6 | CHR_Mouse_Liver_1_AnyLesion ([5]; mouse): 6 | ATG_PXRE_CIS ([6]; HepG2): 4.824 | CLZD_CYP1A1_24 [7]: 5.242 | CLZD_CYP2B6_24 [8]: 5.403

C#CC(C)(C)NC(=O)c1cc(Cl)cc(Cl)c1 [r265]
CHR_Rat_Liver_2_PreneoplasticLesion ([1]; rat liver): 0 | CHR_Rat_Liver_3_NeoplasticLesion ([2]; rat liver): 0 | CHR_Mouse_Liver_3_NeoplasticLesion [9]: 6 | CLZD_ABCB1_24 [3]: 5.227 | CHR_Rat_Liver_1_AnyLesion ([4]; rat liver): 6 | CHR_Mouse_Liver_1_AnyLesion ([5]; mouse liver): 6 | CLZD_CYP3A4_24 [10]: 4.621 | ATG_PXRE_CIS ([6]; HepG2 reporter): 4.824 | NVS_NR_hPXR [11]: 4.411 | CHR_Mouse_Liver_2_PreneoplasticLesion [12]: 6 | ATG_PXR_TRANS [13]: 4.409 | NCGC_PXR_Agonist_human [14]: 4.619 | CLZD_CYP2B6_24 [8]: 5.253

Cc1cc(C)nc(Nc2ccccc2)n1 [r273]
CHR_Rat_Liver_2_PreneoplasticLesion ([1]; rat liver): 6 | CHR_Rat_Liver_3_NeoplasticLesion ([2]; rat liver): 0 | ATG_LXRb_TRANS [15]: 4.237 | ATG_PPARg_TRANS [16]: 4.137 | CHR_Rat_Liver_1_AnyLesion ([4]; rat liver): 6 | CLZD_CYP1A2_24 [17]: 4.839 | CLZD_CYP1A1_24 [7]: 4.775 | CLZD_CYP2B6_24 [8]: 5.27

CC/C(=N\OC/C=C/Cl)C1=C(O)CC(C2CCOCC2)CC1=O (stereo not drawn) [r295]
CHR_Rat_Liver_2_PreneoplasticLesion ([1]; rat liver): 6 | CHR_Rat_Liver_3_NeoplasticLesion ([2]; rat liver): 6 | CHR_Mouse_Liver_3_NeoplasticLesion [9]: 6 | ATG_LXRb_TRANS [15]: 4.194 | CHR_Rat_Liver_1_AnyLesion ([4]; rat liver): 6 | CHR_Mouse_Liver_1_AnyLesion ([5]; mouse liver): 6 | CHR_Mouse_Liver_2_PreneoplasticLesion [12]: 6

Cc1[nH]c(=O)n(C(C)(C)C)c(=O)c1Cl [r296]
CHR_Mouse_Liver_3_NeoplasticLesion [9]: 6 | ATG_LXRb_TRANS [15]: 4.119 | CHR_Mouse_Liver_1_AnyLesion ([5]; mouse liver): 6 | CLZD_CYP1A1_24 [7]: 5.327 | CHR_Mouse_Liver_2_PreneoplasticLesion [12]: 6 | CLZD_CYP2B6_24 [8]: 5.239

— article PMC3038857, “Using Nuclear Receptor Activity to Stratify Hepatocarcinogens” (PLoS ONE, 2011)
